What all share (assay type): in vivo
The subject of assay [1] is Setaria faberi (SETFA). The assay can be described thus: Biological Example 1A glasshouse assay, post-emergence application. The conditions noted are these: for pest or weed control at 250 g/ha / pest or weed control at 30 g/ha: Setaria faberi, 312 h, 13 days after application, read-out: Percentage phytotoxicity SETFA. As to the method:
(§1) Seeds of a variety of test plant species were sown in standard soil ** in pots. After cultivation for one day (pre-emergence) or after 8 days cultivation (post-emergence) under controlled conditions in a glasshouse (at 24/16° C., day/night; 14 hours light; 65% humidity), the plants were sprayed with an aqueous spray solution derived from the formulation of the technical active ingredient (the test herbicide) in acetone/water (50:50) solution containing 0.5% Tween 20 (polyoxyethylene sorbitan monolaurate, CAS Reg. No. 9005-64-5). The test plants were then grown on under controlled conditions in a glasshouse (at 24/16° C., day/night; 14 hours light; 65% humidity) and watered twice daily. 13 Days after application of the test herbicide, for pre- and post-emergence, the test was evaluated visually for percentage phytotoxicity to each plant (where 100%=total damage to plant; 0%=no damage to plant). Generally, each test herbicide is only tested on 1 plant per plant species for each application rate tested and for each application timing. ** The “standard soil” in Biological Example 1 is usually a “sand” or “sandy loam” type of soil.
(§2) Dicotyledonous weeds: ABUTH=Abutilon theophrasti; AMARE=Amaranthus retroflexus. Grassy monocotyledonous weeds: SETFA=Setaria faberi; ALOMY=Alopecurus myosuroides; ECHCG=Echinochloa crus-galli; ZEAMX=Zea mays (corn, maize, e.g. volunteer corn). For Compound A16, the grassy monocotyledonous weed LOLPE (Lolium perenne) was used in the test insterad of ALOMY.

Assay [2] has as its system Echinochloa crus-galli (ECHCG). The assay is described as above. The following applies: 312 h, 13 days after application, read-out: Percentage phytotoxicity ECHCG. As to the method: as §1, §2
Assay [3] concerns Amaranthus retroflexus (AMARE). Described as above. The conditions noted are these: 312 h, 13 days after application, read-out: Percentage phytotoxicity AMARE. Here is the method: as §1, §2
For assay [4], the system named is Alopecurus myosuroides (ALOMY). The description is as above. The conditions noted are these: for Percentage phytotoxicity ALOMY: 13 days after application. As to the method: as §1, §2
In assay [5] the test system is Zea mays (ZEAMX, corn, maize, e.g. volunteer corn). Described as above. The conditions noted are these: for pest or weed control at 250 g/ha / pest or weed control at 30 g/ha: Zea mays, 312 h, 13 days after application, read-out: Percentage phytotoxicity ZEAMX. Here is the method:
as §1, §2

Assay [6] relates to Abutilon theophrasti (ABUTH). Described as above. The conditions noted are these: 312 h, 13 days after application, read-out: Percentage phytotoxicity ABUTH. Here is the method: as §1, §2
In assay [7] the test system is Setaria faberi (SETFA). Nature of the assay: Biological Example 1B glasshouse assay, pre-emergence application. The following applies: 250 g/ha, 13 days after application. Here is the method: as §1, §2
Assay [8] deals with Echinochloa crus-galli (ECHCG). The assay is described as above. The conditions noted are these: 250 g/ha, 13 days after application. As to the method: as §1, §2
Assay [9] concerns Amaranthus retroflexus (AMARE). The assay is described as above. The conditions noted are these: 250 g/ha, 13 days after application. As to the method: as §1, §2
The subject of assay [10] is Alopecurus myosuroides (ALOMY). The description is as above. The conditions noted are these: 250 g/ha, 13 days after application. As to the method: as §1, §2
In assay [11] the test system is Zea mays (ZEAMX, corn, maize, e.g. volunteer corn). Described as above. The conditions noted are these: 250 g/ha, 13 days after application. Here is the method: as §1, §2
The test system of assay [12] is Abutilon theophrasti (ABUTH). The assay is described as above. The conditions noted are these: 250 g/ha, 13 days after application. As to the method: as §1, §2
The subject of assay [13] is grassy (in particular warm climate grassy) monocotyledonous weeds. The assay can be described thus: Post-emergence herbicidal activity, summary statements on Biological Examples 1 to 3. The following applies: applied at about 250 g/ha post-emergence; Biological Examples 1 and 2. Here is the method:
as §1
Seeds of a variety of monocotyledonous and dicotyledonous test plants are sown in standard soil in pots. The plants are cultivated for one day (for pre-emergence) or for about 12 days (range=10-13 days) (for post-emergence) under controlled conditions in a glasshouse (warm climate species at 24/18° C., cool climate species at 20/16° C., both at day/night; 16 hours light; 65% humidity). An “instant formulation”, known as the “IF50”, containing 50 g/litre (i.e. 5% w/v) of the “technical” (i.e. unformulated) active ingredient is prepared by dissolving the active ingredient in a mixture of organic solvents and emulsifier, details of which are provided in the Table below. […]
The test plants are then grown on, in a glasshouse (greenhouse) under controlled conditions (at either 24/18° C. or 20/16° C. (day/night) as mentioned above; 16 hours light; 65% humidity) and are watered twice daily. Either 14 or 15 days after application of the herbicide (14 or 15 DAA) (for post-emergence), or 20 days after application of the herbicide (20 DAA) (for pre-emergence), the test plants are evaluated visually, and an assessed percentage phytotoxicity score is given for each herbicidal application on each plant species (where 100%=total damage to plant; 0%=no damage to plant). […]

Where [14] appears, read: applied at about 250 g/ha post-emergence.

5 molecules from US10696686B2, “Herbicidally active (alkynyl-phenyl)-substituted cyclic dione compounds and derivatives thereof” (Syngenta Limited, priority 2013, dated 2020) can be followed below.

As for `C#Cc1cc(F)c(C2C(=O)CC3(CCOCC3)CC2=O)c(OC)c1` [Compound B2], the pest or weed control at 250 g/ha in assay [1] (post-emergence, 250 g/ha) is 60%; in assay [2] it was 30%; in [3], 0%; in assay [5] (post-emergence, 250 g/ha), 40%; in assay [6], 0%. Also, the “Percentage phytotoxicity ALOMY” value stood at 10% in [4] (250 g/ha) and 50% in assay [10]. For the same molecule, the “Percentage phytotoxicity SETFA” value in [7] worked out at 30%. For the same molecule, the “Percentage phytotoxicity ECHCG” value in assay [8] is on record as 40%. For the same molecule, in assay [9], the “Percentage phytotoxicity AMARE” value is given as 40%. The “Percentage phytotoxicity ZEAMX” value in [11] amounted to 50%. Further, in [12], the “Percentage phytotoxicity ABUTH” value was found to be 0%.
Consider `CC#Cc1cc(F)c(C2C(=O)CCC2=O)c(OC)c1` [Compound A9], for which, in [13], the “post-emergent herbicidal potency against grassy monocotyledonous weeds (in words)” value is on record as “potent post-emergent herbicides”. The pest or weed control at 30 g/ha in assay [1] (post-emergence) was 70%; in assay [2] it was 60%; in assay [3], 0%; in assay [5] (post-emergence) it was 70%; in assay [6] it was 0%. Moreover, the pest or weed control at 250 g/ha in [1] (post-emergence, 250 g/ha) came out at 80%; in assay [2], 70%; in assay [3] it was 20%; in assay [5] (post-emergence, 250 g/ha), 90%; in assay [6], 30%. Moreover, the “Percentage phytotoxicity ALOMY” value in [4] (30 g/ha) was 0%; in assay [4] (250 g/ha), 20%; in assay [10], 30%. Moreover, in [7], the “Percentage phytotoxicity SETFA” value turned out to be 80%. Also, the “Percentage phytotoxicity ECHCG” value in [8] was found to be 80%. Besides, the “Percentage phytotoxicity AMARE” value in [9] was found to be 20%. Besides, the “Percentage phytotoxicity ZEAMX” value in assay [11] is reported as 80%. In assay [12], the “Percentage phytotoxicity ABUTH” value was determined as 0%.
For `CC#Cc1cc(F)c(C2C(=O)CC(CC(C)SC)CC2=O)c(OC)c1` (stereo not shown) [Compound A12], the pest or weed control at 250 g/ha was determined as 0% in [1] (post-emergence, 250 g/ha); 20% in [2]; 0% in [3]; 30% in [5] (post-emergence, 250 g/ha); 0% in assay [6]. The “Percentage phytotoxicity ALOMY” value in assay [4] (250 g/ha) worked out at 0%.
For `CC#Cc1cc(F)c(C2C(=O)C(C)(C)OC(C)(C)C2=O)c(OC)c1` [Compound A10], the “post-emergent herbicidal potency against grassy monocotyledonous weeds (in words)” value in [13] is reported as “potent post-emergent herbicides”. For the same molecule, the pest or weed control at 30 g/ha in assay [1] (post-emergence) worked out at 70%; in assay [2] it was 50%; in assay [3], 0%; in assay [5] (post-emergence) it was 40%; in [6] it was 0%. For the same molecule, the pest or weed control at 250 g/ha in assay [1] (post-emergence, 250 g/ha) was determined as 90%; in [2], 80%; in assay [3], 0%; in [5] (post-emergence, 250 g/ha), 90%; in [6] it was 0%. Besides, the “Percentage phytotoxicity ALOMY” value is recorded as 40% in assay [4] (30 g/ha), 80% in [4] (250 g/ha) and 50% in [10]. Further, the “Percentage phytotoxicity SETFA” value in [7] worked out at 70%. In assay [8], the “Percentage phytotoxicity ECHCG” value was determined as 90%. In addition, in [9], the “Percentage phytotoxicity AMARE” value stood at 0%. The “Percentage phytotoxicity ZEAMX” value in [11] stood at 50%. For the same molecule, the “Percentage phytotoxicity ABUTH” value in assay [12] was determined as 0%.
In the case of `CC#Cc1cc(F)c(C2C(=O)CC3(CCOCC3)CC2=O)c(OC)c1` [Compound A14], the pest or weed control at 250 g/ha came to 70% in assay [1] (post-emergence, 250 g/ha); 20% in [2]; 10% in assay [3]; 80% in assay [5] (post-emergence, 250 g/ha); 0% in [6]. Besides, the “post-emergent herbicidal potency on SETFA (in words)” value in [1] (setting [14]) is given as “potent post-emergent herbicides”. In addition, the “herbicidal potency against SETFA compared with compound B2 (in words)” value in [1] (post-emergence, 250 g/ha, Biological Example 1A, more potent 'perhaps also' on SETFA) is on record as “perhaps also”. The “Percentage phytotoxicity ALOMY” value in [4] (250 g/ha) and in assay [10] was 40% throughout. For the same molecule, the “herbicidal potency against ALOMY compared with compound B2 (in words)” value in assay [4] (250 g/ha, Biological Example 1A) was “more potent herbicide”. Besides, the “post-emergent herbicidal potency on ZEAMX (in words)” value in assay [5] (setting [14]) was “potent post-emergent herbicides”. Also, the “herbicidal potency against ZEAMX compared with compound B2 (in words)” value in [5] (post-emergence, 250 g/ha, Biological Example 1A) is listed as “more potent herbicide”. The “Percentage phytotoxicity SETFA” value in assay [7] is 20%. Besides, the “Percentage phytotoxicity ECHCG” value in assay [8] was 70%. Besides, in [9], the “Percentage phytotoxicity AMARE” value worked out at 20%. Besides, the “Percentage phytotoxicity ZEAMX” value in assay [11] was 30%. In assay [12], the “Percentage phytotoxicity ABUTH” value is on record as 0%.
